Results on ten compounds are retold here after patent US20250026724A1, “(1,4,5-TRISUBSTITUTED 1H-PYRAZOL-3-YL)OXY-2-ALKYLTHIOALKYL ACIDS AND -ALKYL ACID DERIVATIVES, SALTS THEREOF AND USE THEREOF AS ACTIVE HERBICIDAL INGREDIENTS” (BAYER AKTIENGESELLSCHAFT, priority 2021, published 2025).

Holding throughout (experiment): Post-emergence herbicidal action, greenhouse pot trial
What all share (assay type): in vivo

In assay [1] the test system is Alopecurus myosuroides (ALOMY). The following applies: Alopecurus myosuroides, 504 h, 320 g/ha, visual rating after about 3 weeks, read-out: Post-emergence effect at 320 g/ha against ALOMY in %. As to the method: (§1) Seeds of monocotyledonous and dicotyledonous weeds and crop plants are placed in sandy loam in plastic or organic planting pots, covered with soil and cultivated in a greenhouse under controlled growth conditions. 2 to 3 weeks after sowing, the trial plants are treated at the one-leaf stage. The compounds of the invention, formulated in the form of wettable powders (WP) or as emulsion concentrates (EC), are then sprayed onto the green parts of the plants as aqueous suspension or emulsion with addition of 0.5% additive at a water application rate equivalent to 600 l/ha. After about 3 weeks of keeping the trial plants in the greenhouse under optimum growth conditions, the effect of the preparations is rated visually in comparison to untreated controls. For example, 100% activity=the plants have died, 0% activity=like control plants.
(§2) Tables B1 to B14 below show the effects of selected compounds of the general formula (I) according to Table 1 on various harmful plants and at an application rate corresponding to 320 g/ha or lower, which were obtained by the trial procedure specified above. The appendices “a”, “b” and “c” give differentiation by dosage used with otherwise the same harmful plants tested.
(§3) As shown by results from Tables B1 to B19, inventive compounds of the general formula (I) in the case of post-emergence treatment have good herbicidal efficacy against harmful plants, for example Abutilon theophrasti (ABUTH), Alopecurus myosuroides (ALOMY), Amaranthus retroflexus (AMARE), Avena fatua (AVEFA), Digitaria sanguinalis (DIGSA), Echinochloa crus-galli (ECHCG), Bassia scoparia (KCHSC), Lolium rigidum (LOLRI), Matricaria inodora (MATIN), Pharbitis purpurea (PHBPU), Polygonum convolvulus (POLCO), Setaria viridis (SETVI), Veronica persica (VERPE) and Viola tricolor (VIOTR) at an application rate of 320 g of active substance or less per hectare, and good crop plant compatibility in the case of organisms such as Oryza sativa (ORYSA), Zea mays (ZEAMX), Brassica napus (BRSNW), Glycine max (GLXMA) and Triticum aestivum (TRZAS) at an application rate of 320 g or less per hectare.

Assay [2] concerns Echinochloa crus-galli (ECHCG). The settings on record: 320 g/ha, visual rating after about 3 weeks; for pest or weed control at 320 g/ha: Echinochloa crus-galli, 504 h, read-out: Post-emergence effect at 320 g/ha against ECHCG in %. As to the method:
as §1, §2, §3

Assay [3] has as its system Pharbitis purpurea (PHBPU). The following applies: visual rating after about 3 weeks; for pest or weed control at 320 g/ha / pest or weed control at 80 g/ha: Ipomoea purpurea, 504 h; for pest or weed control at 320 g/ha: read-out: Post-emergence effect at 320 g/ha against PHBPU in %; for pest or weed control at 80 g/ha: read-out: Post-emergence effect at 80 g/ha against PHBPU in %. As to the method: as §1, §2, §3

Assay [4] deals with Polygonum convolvulus (POLCO). The settings on record: visual rating after about 3 weeks; for pest or weed control at 320 g/ha: read-out: Post-emergence effect at 320 g/ha against POLCO in %. On the procedure:
as §1, §2, §3

The test system of assay [5] is Viola tricolor (VIOTR). The following applies: for pest or weed control at 320 g/ha / pest or weed control at 80 g/ha: Viola tricolor, 504 h, read-out: Post-emergence effect against VIOTR. As to the method:
as §1, §2, §3

In assay [6] the test system is Abutilon theophrasti (ABUTH). The following applies: visual rating after about 3 weeks; for pest or weed control at 320 g/ha: read-out: Post-emergence effect at 320 g/ha against ABUTH in %. As to the method:
as §1, §2, §3

The subject of assay [7] is Bassia scoparia (KCHSC). The following applies: Bassia scoparia, 504 h, read-out: Post-emergence effect against KCHSC. As to the method:
as §1, §2, §3

In assay [8] the test system is Digitaria sanguinalis (DIGSA). The following applies: 320 g/ha, visual rating after about 3 weeks; for pest or weed control at 320 g/ha: Digitaria sanguinalis, 504 h, read-out: Post-emergence effect at 320 g/ha against DIGSA in %. On the procedure:
as §1, §2, §3

For assay [9], the system named is Amaranthus retroflexus (AMARE). The following applies: visual rating after about 3 weeks; for pest or weed control at 320 g/ha: read-out: Post-emergence effect at 320 g/ha against AMARE in %. On the procedure:
as §1, §2, §3

Assay [10] deals with Avena fatua (AVEFA). The settings on record: 320 g/ha, visual rating after about 3 weeks; for pest or weed control at 320 g/ha: Avena fatua, 504 h, read-out: Post-emergence effect at 320 g/ha against AVEFA in %. On the procedure: as §1, §2, §3
In assay [11] the test system is Setaria viridis (SETVI). The settings on record: visual rating after about 3 weeks; for pest or weed control at 320 g/ha: Setaria viridis, 504 h, read-out: Post-emergence effect at 320 g/ha against SETVI in %. On the procedure:
as §1, §2, §3

Assay [12] deals with Matricaria inodora (MATIN). The following applies: 320 g/ha, visual rating after about 3 weeks; for pest or weed control at 320 g/ha: Tripleurospermum inodorum, 504 h, read-out: Post-emergence effect at 320 g/ha against MATIN in %. On the procedure: as §1, §2, §3
Assay [13] has as its system Lolium rigidum (LOLRI). The settings on record: Lolium rigidum, 504 h, 320 g/ha, visual rating after about 3 weeks, read-out: Post-emergence effect at 320 g/ha against LOLRI in %. As to the method:
as §1, §2, §3

Setting [14] is: Fallopia convolvulus, 504 h, 320 g/ha.
The mark [15] stands for this setting: Abutilon theophrasti, 504 h, 320 g/ha.
Where [16] appears, read: Amaranthus retroflexus, 504 h, 320 g/ha.

On to `CCOC(=O)C(Oc1nn(-c2cnccn2)c(-c2ccc(F)nc2)c1Cl)SC` (stereo not drawn) [Example I-16], for which the pest or weed control at 320 g/ha in assay [1], in assay [2], in [3] (320 g/ha) and in [4] (setting [14]) was 80% each time.

With `CSC(Oc1nn(-c2cnccn2)c(-c2ccc(F)nc2)c1Br)C(=O)O` (stereo not drawn) [Example I-36], the pest or weed control at 320 g/ha in assay [5] (320 g/ha) stood at 80%; in [1] it was 90%; in assay [6] (setting [15]) it was 80%; in assay [7] it was 90%; in assay [3] (320 g/ha), 90%; in assay [4] (setting [14]), 90%.

Regarding `CCOC(=O)C(Oc1nn(-c2ncccc2F)c(-c2ccc(F)nc2)c1Cl)SC` (stereo not drawn) [Example I-19], the pest or weed control at 80 g/ha in [5] (80 g/ha) came out at 90%; in assay [9] (Amaranthus retroflexus, 504 h, 80 g/ha, read-out: Post-emergence effect at 80 g/ha against AMARE in %), 80%; in assay [3], 80%. Further, the pest or weed control at 320 g/ha in assay [5] (320 g/ha) was 100%; in assay [8], 80%; in assay [9] (setting [16]) it was 90%; in assay [2], 100%; in [10], 100%; in assay [6] (setting [15]), 90%. The pest or weed control at 320 g/ha stood at 90% in assay [11] (320 g/ha); 90% in assay [3] (320 g/ha); 90% in assay [4] (setting [14]); 90% in assay [12]; 100% in assay [13].

Take `CCOC(=O)C(Oc1nn(-c2ccccc2)c(-c2ccc(F)nc2)c1Br)SC` (stereo not drawn) [Example I-04]: the pest or weed control at 80 g/ha in [5] (80 g/ha) stood at 80%; in [4] (Fallopia convolvulus, 504 h, 80 g/ha, read-out: Post-emergence effect at 80 g/ha against POLCO in %) it was 80%. The pest or weed control at 320 g/ha in [5] (320 g/ha) is 90%; in [8] it was 80%; in [2] it was 80%; in [6] (setting [15]) it was 80%; in assay [11] (320 g/ha) it was 90%; in assay [4] (setting [14]) it was 90%. In addition, the pest or weed control at 320 g/ha in assay [12] and in assay [13] was 90% each time.

As for `CCOC(=O)C(Oc1nn(-c2cnccn2)c(-c2ccc(F)nc2)c1Br)SC` (stereo not drawn) [Example I-17], the pest or weed control at 320 g/ha in assay [8], in assay [9] (setting [16]), in assay [2], in [10], in [11] (320 g/ha) and in assay [3] (320 g/ha) was 80% in each case. The pest or weed control at 80 g/ha in assay [3] came to 80%.

On to `COC(=O)C(Oc1nn(-c2ncccc2F)c(-c2ccc(F)nc2)c1C1CC1)SC` (stereo not drawn) [Example I-59], for which the pest or weed control at 80 g/ha in assay [5] (80 g/ha) was determined as 80%; in [6] (Abutilon theophrasti, 504 h, 80 g/ha, read-out: Post-emergence effect at 80 g/ha against ABUTH in %), 80%; in assay [3], 90%. The pest or weed control at 320 g/ha in [5] (320 g/ha) is 80%; in [2] it was 90%; in [10] it was 90%; in [6] (setting [15]), 90%; in assay [3] (320 g/ha) it was 90%; in [13] it was 90%.

Turning to `CSC(Oc1nn(-c2ncccc2F)c(-c2ccc(F)nc2)c1Br)C(=O)O` (single isomer, unassigned) [Example I-24], the pest or weed control at 320 g/ha in [5] (320 g/ha) was 90%; in assay [8] it was 90%; in assay [9] (setting [16]) it was 80%; in assay [2] it was 90%; in assay [10] it was 80%; in assay [6] (setting [15]), 80%. The pest or weed control at 320 g/ha in assay [7] is 80%; in [11] (320 g/ha), 90%; in assay [3] (320 g/ha), 90%; in assay [4] (setting [14]), 90%; in assay [12] it was 80%. The pest or weed control at 80 g/ha is 80% in assay [7] (80 g/ha) and 90% in assay [3].

On to `CSC(Oc1nn(-c2cnccn2)c(-c2ccc(F)nc2)c1Cl)C(=O)O` (stereo not drawn) [Example I-37], for which the pest or weed control at 320 g/ha in assay [5] (320 g/ha) came to 80%; in assay [1], 90%; in assay [6] (setting [15]), 80%; in assay [7] it was 90%; in [3] (320 g/ha) it was 90%; in assay [4] (setting [14]) it was 90%.

For `COC(=O)C(Oc1nn(-c2ccccc2F)c(-c2ccc(F)nc2)c1I)SC` (stereo not drawn) [Example I-52], the pest or weed control at 80 g/ha in assay [5] (80 g/ha) is 80%. Besides, the pest or weed control at 320 g/ha was 90% in [5] (320 g/ha); 80% in [8]; 90% in assay [9] (setting [16]); 90% in [2]; 80% in assay [6] (setting [15]); 90% in [11] (320 g/ha). In addition, the pest or weed control at 320 g/ha in assay [4] (setting [14]) is 90%; in assay [12] it was 80%; in assay [13], 100%. For the same compound, in assay [11] (80 g/ha), the “Post-emergence effect at 80 g/ha against SETVI in %” value was 80%.

For `COC(=O)C(Oc1nn(-c2ncccc2F)c(-c2ccc(F)nc2)c1Br)SC` (single isomer, unassigned) [Example I-27], the “Post-emergence effect against VIOTR” value in [5] (80 g/ha) is recorded as 80%; in assay [5] (320 g/ha), 90%. Also, in assay [8], the “Post-emergence effect at 320 g/ha against DIGSA in %” value is recorded as 90%. Besides, the “Post-emergence effect at 80 g/ha against AMARE in %” value in assay [9] (80 g/ha) came to 80%. Further, the “Post-emergence effect at 320 g/ha against AMARE in %” value in assay [9] (320 g/ha) was 80%. The “Post-emergence effect at 320 g/ha against ECHCG in %” value in [2] is 90%. The “Post-emergence effect at 320 g/ha against AVEFA in %” value in [10] is 90%. Besides, in assay [6] (80 g/ha), the “Post-emergence effect at 80 g/ha against ABUTH in %” value was found to be 80%. Further, the “Post-emergence effect at 320 g/ha against ABUTH in %” value in assay [6] (320 g/ha) amounted to 90%. In assay [7], the pest or weed control at 320 g/ha came out at 80%. Moreover, in assay [11] (320 g/ha), the “Post-emergence effect at 320 g/ha against SETVI in %” value is recorded as 90%. Further, the “Post-emergence effect at 320 g/ha against PHBPU in %” value in [3] (320 g/ha) amounted to 100%. In addition, the “Post-emergence effect at 20 g/ha against POLCO in %” value in assay [4] (20 g/ha) is on record as 80%. In assay [4] (80 g/ha), the “Post-emergence effect at 80 g/ha against POLCO in %” value was determined as 80%. Moreover, the “Post-emergence effect at 320 g/ha against POLCO in %” value in assay [4] (320 g/ha) came out at 90%. The “Post-emergence effect at 320 g/ha against MATIN in %” value in assay [12] was found to be 80%.
